Data reported in ChEMBL document CHEMBL4613315, “Design of First-in-Class Dual EZH2/HDAC Inhibitor: Biochemical Activity and Biological Evaluation in Cancer Cells” (ACS Med Chem Lett, 2020).

How the values were obtained:
[1] = biological target: T1, Histone-lysine N-methyltransferase EZH2 (Homo sapiens, UniProt Q15910); experiment: Inhibition of human EZH2 using core histone as substrate incubated for 1 hr by fluorescence based assay
Target sequence in this assay (Q15910 whole entry): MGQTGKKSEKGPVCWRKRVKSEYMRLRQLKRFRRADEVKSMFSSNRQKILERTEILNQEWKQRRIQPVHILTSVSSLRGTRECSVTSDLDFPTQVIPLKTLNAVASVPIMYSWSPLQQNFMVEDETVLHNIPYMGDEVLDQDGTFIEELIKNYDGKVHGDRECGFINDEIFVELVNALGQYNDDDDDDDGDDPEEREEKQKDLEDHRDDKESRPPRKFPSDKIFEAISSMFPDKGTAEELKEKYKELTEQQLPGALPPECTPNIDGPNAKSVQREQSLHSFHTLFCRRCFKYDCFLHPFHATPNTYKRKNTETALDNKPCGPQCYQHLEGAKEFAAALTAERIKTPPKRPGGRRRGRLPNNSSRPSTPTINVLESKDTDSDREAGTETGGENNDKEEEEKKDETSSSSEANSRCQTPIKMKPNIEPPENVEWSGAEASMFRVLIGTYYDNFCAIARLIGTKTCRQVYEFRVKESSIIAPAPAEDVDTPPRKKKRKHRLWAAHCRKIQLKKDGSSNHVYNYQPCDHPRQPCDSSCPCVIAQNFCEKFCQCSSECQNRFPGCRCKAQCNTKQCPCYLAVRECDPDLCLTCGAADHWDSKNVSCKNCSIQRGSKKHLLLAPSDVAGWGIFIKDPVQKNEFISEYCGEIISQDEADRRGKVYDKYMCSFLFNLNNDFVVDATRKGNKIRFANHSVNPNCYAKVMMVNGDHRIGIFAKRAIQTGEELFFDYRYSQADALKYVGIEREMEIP

Histone deacetylase 1 = Histone deacetylase 1 (Homo sapiens, UniProt Q13547); experiment: Inhibition of human recombinant HDAC1 using AMC-K(Ac)GL as substrate by fluorescence based assay
Histone deacetylase 2 = Histone deacetylase 2 (Homo sapiens, UniProt Q92769)
Description: Inhibition of human recombinant HDAC2 using AMC-K(Ac)GL as substrate by fluorescence based assay

Histone deacetylase 3 = Histone deacetylase 3 (Homo sapiens, UniProt O15379); experiment: Inhibition of human recombinant HDAC3 using AMC-K(Ac)GL as substrate by fluorescence based assay
Histone deacetylase 5 = Histone deacetylase 5 (Homo sapiens, UniProt Q9UQL6); experiment: Inhibition of human recombinant HDAC5 using AMC-K(TFA)GL as substrate by fluorescence based assay
[2] = biological target: T2, Protein deacetylase HDAC6 (Homo sapiens, UniProt Q9UBN7); experiment: Inhibition of human recombinant HDAC6 using AMC-K(Ac)GL as substrate by fluorescence based assay
T2 sequence (Q9UBN7 whole entry): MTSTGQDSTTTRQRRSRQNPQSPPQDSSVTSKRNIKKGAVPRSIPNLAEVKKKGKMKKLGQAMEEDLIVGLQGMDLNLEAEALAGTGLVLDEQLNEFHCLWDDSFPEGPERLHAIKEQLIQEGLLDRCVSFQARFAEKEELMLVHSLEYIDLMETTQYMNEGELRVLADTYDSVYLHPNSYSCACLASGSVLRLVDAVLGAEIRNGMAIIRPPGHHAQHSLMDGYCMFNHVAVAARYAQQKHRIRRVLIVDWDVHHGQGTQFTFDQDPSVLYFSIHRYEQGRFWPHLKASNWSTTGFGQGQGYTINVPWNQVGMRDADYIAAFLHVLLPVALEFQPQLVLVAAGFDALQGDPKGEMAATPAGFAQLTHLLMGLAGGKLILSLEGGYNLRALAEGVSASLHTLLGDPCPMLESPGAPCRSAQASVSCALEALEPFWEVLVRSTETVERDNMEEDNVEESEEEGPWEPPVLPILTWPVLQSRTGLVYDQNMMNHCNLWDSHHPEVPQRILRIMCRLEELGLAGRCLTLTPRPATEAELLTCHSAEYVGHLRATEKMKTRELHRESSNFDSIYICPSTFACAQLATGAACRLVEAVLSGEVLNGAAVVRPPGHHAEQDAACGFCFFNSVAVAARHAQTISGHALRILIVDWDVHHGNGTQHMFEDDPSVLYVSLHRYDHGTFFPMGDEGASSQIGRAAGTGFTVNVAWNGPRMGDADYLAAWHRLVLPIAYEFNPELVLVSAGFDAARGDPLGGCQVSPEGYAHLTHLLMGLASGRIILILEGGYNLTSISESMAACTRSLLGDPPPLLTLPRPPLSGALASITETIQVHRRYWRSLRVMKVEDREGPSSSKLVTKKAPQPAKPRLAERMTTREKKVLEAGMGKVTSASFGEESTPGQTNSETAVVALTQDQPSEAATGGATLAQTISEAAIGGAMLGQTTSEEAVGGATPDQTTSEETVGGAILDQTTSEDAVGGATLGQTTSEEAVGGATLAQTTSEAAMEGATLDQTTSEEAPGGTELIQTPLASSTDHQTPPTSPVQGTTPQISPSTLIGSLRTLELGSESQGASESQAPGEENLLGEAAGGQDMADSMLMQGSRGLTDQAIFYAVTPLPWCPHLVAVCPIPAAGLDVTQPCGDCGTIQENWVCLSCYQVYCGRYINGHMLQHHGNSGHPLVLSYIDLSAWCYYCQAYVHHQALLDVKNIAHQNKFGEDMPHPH

Histone deacetylase 8 = biological target: T3, Histone deacetylase 8 (Homo sapiens, UniProt Q9BY41); experiment: Inhibition of human recombinant HDAC8 using AMC-K(Ac)GL as substrate by fluorescence based assay
T3 sequence (Q9BY41 whole entry): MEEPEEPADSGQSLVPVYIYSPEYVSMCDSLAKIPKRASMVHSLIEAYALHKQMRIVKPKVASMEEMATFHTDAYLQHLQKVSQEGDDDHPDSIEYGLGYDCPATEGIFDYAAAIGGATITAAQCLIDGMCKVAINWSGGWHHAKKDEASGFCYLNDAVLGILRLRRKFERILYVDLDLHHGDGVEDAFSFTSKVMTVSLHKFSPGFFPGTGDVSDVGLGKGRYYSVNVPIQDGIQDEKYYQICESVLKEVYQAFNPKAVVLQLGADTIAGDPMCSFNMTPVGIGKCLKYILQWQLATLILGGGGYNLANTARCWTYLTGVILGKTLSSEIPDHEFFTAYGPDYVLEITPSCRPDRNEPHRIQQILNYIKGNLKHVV

[3] = biological target: T1, Histone-lysine N-methyltransferase EZH2; experiment: Inhibition of human EZH2 using core histone as substrate at 100 uM incubated for 1 hr by fluorescence based assay relative to control
Target sequence in this assay (Q15910 whole entry, looked up): as the sequence (Q15910 whole entry) above

Histone deacetylase 3, sequence (O15379 whole entry): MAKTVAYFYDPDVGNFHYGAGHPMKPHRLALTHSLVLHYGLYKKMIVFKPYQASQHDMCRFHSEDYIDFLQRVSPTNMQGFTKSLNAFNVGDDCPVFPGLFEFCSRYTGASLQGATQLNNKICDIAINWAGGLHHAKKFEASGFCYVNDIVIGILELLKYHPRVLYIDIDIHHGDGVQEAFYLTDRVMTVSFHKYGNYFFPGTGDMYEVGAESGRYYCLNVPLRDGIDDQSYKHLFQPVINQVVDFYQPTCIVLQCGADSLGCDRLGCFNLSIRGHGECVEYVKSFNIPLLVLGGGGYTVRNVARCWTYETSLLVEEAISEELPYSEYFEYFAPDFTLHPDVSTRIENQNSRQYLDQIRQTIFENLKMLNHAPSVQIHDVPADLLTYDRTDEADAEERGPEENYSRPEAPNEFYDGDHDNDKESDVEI
Histone deacetylase 5, sequence (Q9UQL6 whole entry): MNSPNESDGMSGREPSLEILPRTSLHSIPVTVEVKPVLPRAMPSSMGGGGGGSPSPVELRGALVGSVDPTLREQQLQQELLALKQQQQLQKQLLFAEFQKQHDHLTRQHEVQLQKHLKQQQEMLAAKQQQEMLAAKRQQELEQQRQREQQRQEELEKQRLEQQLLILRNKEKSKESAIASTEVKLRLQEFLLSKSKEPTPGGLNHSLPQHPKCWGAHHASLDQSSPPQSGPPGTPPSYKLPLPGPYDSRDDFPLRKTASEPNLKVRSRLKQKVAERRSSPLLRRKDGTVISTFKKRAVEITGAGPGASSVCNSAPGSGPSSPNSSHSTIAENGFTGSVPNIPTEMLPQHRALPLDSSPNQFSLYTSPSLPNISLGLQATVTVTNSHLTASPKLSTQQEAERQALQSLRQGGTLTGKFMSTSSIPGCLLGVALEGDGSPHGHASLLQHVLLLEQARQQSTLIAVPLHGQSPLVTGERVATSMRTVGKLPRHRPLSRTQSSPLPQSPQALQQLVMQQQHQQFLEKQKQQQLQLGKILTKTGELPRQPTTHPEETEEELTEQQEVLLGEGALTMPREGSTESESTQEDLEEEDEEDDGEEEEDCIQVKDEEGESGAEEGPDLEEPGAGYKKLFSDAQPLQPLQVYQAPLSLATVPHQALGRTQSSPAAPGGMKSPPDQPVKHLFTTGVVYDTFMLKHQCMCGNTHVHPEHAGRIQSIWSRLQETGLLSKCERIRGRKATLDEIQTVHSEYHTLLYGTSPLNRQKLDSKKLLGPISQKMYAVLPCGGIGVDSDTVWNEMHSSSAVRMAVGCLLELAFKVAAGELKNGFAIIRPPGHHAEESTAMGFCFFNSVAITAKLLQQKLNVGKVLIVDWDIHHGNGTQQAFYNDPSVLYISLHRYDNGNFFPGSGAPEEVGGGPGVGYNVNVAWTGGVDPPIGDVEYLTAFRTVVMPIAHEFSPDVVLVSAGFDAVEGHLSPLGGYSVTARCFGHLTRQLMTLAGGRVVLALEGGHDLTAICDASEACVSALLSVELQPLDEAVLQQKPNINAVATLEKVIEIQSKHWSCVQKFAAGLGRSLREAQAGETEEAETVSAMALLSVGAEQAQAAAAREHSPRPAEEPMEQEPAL
Histone deacetylase 2, sequence (Q92769 whole entry): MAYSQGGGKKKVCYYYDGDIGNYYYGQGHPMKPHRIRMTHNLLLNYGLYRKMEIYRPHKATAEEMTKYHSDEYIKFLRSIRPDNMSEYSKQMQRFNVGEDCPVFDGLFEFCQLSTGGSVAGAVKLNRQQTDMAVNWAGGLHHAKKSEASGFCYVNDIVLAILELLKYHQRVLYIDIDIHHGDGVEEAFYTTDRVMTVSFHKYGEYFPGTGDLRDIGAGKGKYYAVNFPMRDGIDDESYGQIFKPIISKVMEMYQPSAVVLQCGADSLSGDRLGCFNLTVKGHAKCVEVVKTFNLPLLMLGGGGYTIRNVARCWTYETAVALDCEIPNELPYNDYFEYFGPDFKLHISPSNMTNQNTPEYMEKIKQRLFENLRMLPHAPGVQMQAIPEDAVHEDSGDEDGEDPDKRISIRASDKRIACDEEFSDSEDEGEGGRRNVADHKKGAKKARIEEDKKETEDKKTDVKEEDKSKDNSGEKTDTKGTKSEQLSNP
Histone deacetylase 1, sequence (Q13547 whole entry): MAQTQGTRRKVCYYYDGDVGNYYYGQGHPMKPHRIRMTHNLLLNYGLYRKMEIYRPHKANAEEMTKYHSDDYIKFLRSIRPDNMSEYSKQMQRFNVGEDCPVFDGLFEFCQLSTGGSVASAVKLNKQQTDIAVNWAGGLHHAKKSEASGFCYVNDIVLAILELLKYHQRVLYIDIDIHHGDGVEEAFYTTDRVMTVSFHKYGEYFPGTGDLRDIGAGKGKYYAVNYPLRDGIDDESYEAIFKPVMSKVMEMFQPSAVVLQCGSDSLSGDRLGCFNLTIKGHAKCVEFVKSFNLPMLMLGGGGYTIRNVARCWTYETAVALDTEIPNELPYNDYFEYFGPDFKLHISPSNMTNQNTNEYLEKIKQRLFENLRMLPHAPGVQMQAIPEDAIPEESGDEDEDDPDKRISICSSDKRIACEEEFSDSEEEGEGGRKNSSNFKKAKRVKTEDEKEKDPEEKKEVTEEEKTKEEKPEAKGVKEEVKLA

Structure (SMILES) | IC50 [1] | IC50 (Histone deacetylase 1) | IC50 (Histone deacetylase 2) | IC50 (Histone deacetylase 3) | IC50 (Histone deacetylase 5) | IC50 [2] | IC50 (Histone deacetylase 8) | inhibition [3]
Cc1cc(C)c(CNC(=O)c2cnn(-c3ccccc3)c2C)c(=O)[nH]1 | 15400 nM | – | – | – | – | – | – | –
Cc1cc(C)c(CNC(=O)c2cnn(-c3cccc(NC(=O)CCCCCCC(=O)NO)c3)c2C)c(=O)[nH]1 | – | 830 nM | 2360 nM | 1480 nM | 101000 nM | 10 nM | 2080 nM | 4%
